Results as given in patent US9822139B2, “Pharmaceutical composition containing cyclometalated N-heterocyclic carbene complexes for cancer treatment” (THE UNIVERSITY OF HONG KONG, priority 2009, dated 2017).

Assays:
[1] = system: KB cells; test: Alkaline comet assay for DNA strand breaks; type: cell-based; conditions: for strand breaks on chromosomal DNA (comet assay): 3 h, KB cells; for reversal of DNA cleavage events upon second incubation: second incubation at 55° C. for 10 min
[2] = molecular target: T1, TopoI (Homo sapiens, UniProt P11387); test: Band depletion assay for TopoI cleavable complexes; type: cell-based; conditions: KB cells
T1 construct: endogenous in cells; host or cells: KB cells
T1 sequence (P11387 1-765): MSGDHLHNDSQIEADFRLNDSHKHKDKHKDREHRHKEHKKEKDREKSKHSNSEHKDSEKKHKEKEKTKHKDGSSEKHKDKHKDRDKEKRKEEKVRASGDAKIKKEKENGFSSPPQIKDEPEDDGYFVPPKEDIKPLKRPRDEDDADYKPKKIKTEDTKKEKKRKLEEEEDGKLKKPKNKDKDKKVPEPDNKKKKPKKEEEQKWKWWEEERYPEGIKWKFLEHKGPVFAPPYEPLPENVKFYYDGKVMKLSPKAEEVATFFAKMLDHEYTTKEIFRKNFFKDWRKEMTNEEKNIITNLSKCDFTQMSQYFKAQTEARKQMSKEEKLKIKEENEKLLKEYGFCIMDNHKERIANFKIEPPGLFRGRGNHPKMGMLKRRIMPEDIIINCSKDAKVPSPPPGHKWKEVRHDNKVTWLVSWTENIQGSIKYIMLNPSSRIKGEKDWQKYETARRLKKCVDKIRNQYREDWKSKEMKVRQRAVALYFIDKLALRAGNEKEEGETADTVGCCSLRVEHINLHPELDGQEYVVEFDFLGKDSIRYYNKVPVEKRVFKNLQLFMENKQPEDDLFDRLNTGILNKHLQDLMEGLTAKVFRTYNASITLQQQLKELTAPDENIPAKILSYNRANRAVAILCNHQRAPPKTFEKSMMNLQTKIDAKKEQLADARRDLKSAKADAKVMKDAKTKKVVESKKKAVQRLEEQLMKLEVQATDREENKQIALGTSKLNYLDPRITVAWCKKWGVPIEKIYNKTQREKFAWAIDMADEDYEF
Text: In this assay, while TopoI-DNA cleavable complexes are trapped by alkaline lysis, free TopoI is detected as an immunoreactive band.

[3] = system: non-small cell lung carcinoma (NCI-H460); test: MTT cytotoxicity assay, NCI-H460; type: cell-based, human; conditions: 72 h
Protocol: (§1) Example 2 describes the in vitro cytotoxicity, which is indicative of the induction of cell death and/or inhibition of cellular proliferation of cancer cells, of the cyclometalated N-heterocyclic complexes on cervical epithelioid carcinoma, hepatocellular carcinoma, leukemia, nasopharyngeal carcinoma, breast carcinoma, melanoma, and lung carcinoma.
(§2) By means of MTT assays, the cytotoxic properties of cyclometalated N-heterocyclic carbene complexes (1-25) were determined toward some established human cancer cell lines including hepatocellular carcinoma (HepG2), cervical epithelioid carcinoma (HeLa), epithelial carcinoma (KB and its camptothecin-resistant cell line KB100), non-small cell lung carcinoma (NCI-H460), leukemia (HL-60), breast carcinoma (MDA-MB-231), melanoma (B16) and nasopharyngeal carcinoma (SUNE1). […] In terms of the IC50 values, they display similar cytotoxic properties compared to the reference complexes cisplatin and camptothecin (CPT).

[4] = system: SUNE1 cells; test: Apoptosis induction by flow cytometry (AV-FITC / PI); type: cell-based; conditions: 72 h
Protocol: Since cancer is characterized by uncontrolled cellular proliferation, there is a considerable interest in chemotherapeutic-induced apoptosis [J. C. Reed, Nature Rev. Drug Discov. 2002, 1, 111; D. W. Nicholson, Nature 2000, 407, 810]. Using fluorescein-labeled annexin V (AV-FITC) and propidium iodide (PI), the apoptosis-inducing properties of complex 1 in SUNE1 cells were examined by flow cytometry. […] The apoptosis-inducing properties of complex 1 at a lower dose (12 μM for 72 h) were also examined. […] According to the propagation profiles (formazan absorbance A550nm vs incubation time) of the treated SUNE1 cells, there is a trend of cellular growth inhibition in the presence of complex 1 at 12 μM level. Taken together with the flow cytometric results, complex 1 appears to inhibit cancer cell proliferation at 12 μM and induce apoptosis at higher doses (i.e. 60 μM).
The apoptosis-inducing properties of complex 14 in SUNE1 cells were also examined by flow cytometry. […] The apoptosis-inducing properties of complex 14 at a lower dose (1 μM for 72 h) were also examined. […] Thus, complex 14 could induce apoptosis at 10 μM.

[5] = system: melanoma (B16); test: MTT cytotoxicity assay, B16; type: cell-based, mouse; conditions: 72 h
Protocol: as §1, §2

[6] = system: hepatocellular carcinoma (HepG2); test: MTT cytotoxicity assay, HepG2; type: cell-based, human; conditions: 72 h
Protocol: as §1, §2

[7] = system: lung fibroblast cells (CCD-19Lu); test: MTT cytotoxicity to non-cancerous cells, CCD-19Lu; type: cell-based, human; conditions: 72 h, non-cancerous lung fibroblast cells CCD-19Lu
Protocol: as §2
Using lung fibroblast cells (CCD-19Lu), the cytotoxicity of the complexes to non-cancerous cells was also examined.

[8] = system: epithelial carcinoma (KB); test: MTT cytotoxicity assay, KB; type: cell-based, human; conditions: 72 h
Protocol: as §1, §2

[9] = system: established human cancer cell lines; test: MTT cytotoxicity, panel of cancer cell lines (summary statements); type: cell-based; conditions: in terms of IC50, versus cisplatin
Protocol: as §2

[10] = system: cervical epithelioid carcinoma (HeLa); test: MTT cytotoxicity assay, HeLa; type: cell-based, human; conditions: 72 h
Protocol: as §1, §2

[11] = system: leukemia (HL-60); test: MTT cytotoxicity assay, HL-60; type: cell-based, human; conditions: 72 h
Protocol: as §1, §2

[12] = system: camptothecin-resistant cell line KB100; test: MTT cytotoxicity assay, KB100; type: cell-based, human; conditions: 72 h
Protocol: as §1, §2

[13] = system: PLC tumor (hepatocellular carcinoma); test: In vivo anti-cancer study, nude mice bearing PLC tumor; conditions: 3 mg/kg/week for 28 days
Text: Prompted by the prominent in vitro cytotoxicity and the potential cancer-cell selectivity, the in vivo anti-cancer property of complex 1 was preliminarily examined by using nude mice models with the approval from the Committee on the Use of Live Animals for Teaching and Research (The University of Hong Kong).

[14] = system: breast carcinoma (MDA-MB-231); test: MTT cytotoxicity assay, MDA-MB-231; type: cell-based, human; conditions: 72 h, MBA-MD-231
Protocol: as §1, §2

[15] = molecular target: T2, topoisomerase I (TopoI) (Homo sapiens, UniProt P11387); test: TopoI-mediated relaxation of supercoiled DNA; type: biochemical
T2 sequence (P11387 1-765): T1 sequence (P11387 1-765)
Text: DNA strand breaks were also detected in complex 1-treated KB cells by alkaline comet assay. […] Topoisomerases have become one of the important cellular targets for anti-cancer treatment. It is believed that topoisomerase inhibitors prevent the ligation step of the cell cycle, generate DNA strand breaks, and subsequently induce apoptosis in cells. […] The assay was repeated on ethidium bromide containing gel (FIG. 4, lower).

With `CC[C@@]1(O)C(=O)OCc2c1cc1n(c2=O)Cc2cc3ccccc3nc2-1` [CPT, camptothecin] the “strand breaks on chromosomal DNA (comet assay)” value ([1]; 1 μM) was “induced extensive strand breaks on chromosomal DNA”, the “reversal of DNA cleavage events upon second incubation” value [1] was “partially reversed” and the “band intensity of the TopoI band” value ([2]; 1 μM) was “reduced the band intensity of the TopoI band”.

`Cn1cc[n+](C)[c]1[Au-]12[c]3ccccc3-c3cccc([n+]31)-c1cccc[c]12.O=S(=O)([O-])C(F)(F)F` [Complex 1] was tested, and the IC50 [3] was 170 nM, the “strand breaks on chromosomal DNA (comet assay)” value ([1]; 0.5 μM) was “induced extensive strand breaks on chromosomal DNA” and the “reversal of DNA cleavage events upon second incubation” value [1] was “partially reversed”. For the same compound, the “viable cells unstained by both AV-FITC and PI” value ([4]; 12 μM) was about 90%, the “SUNE1 cells in early apoptotic state” value ([4]; 60 μM) was 30.9% and the IC50 [5] was 330 nM. The IC50 [6] was 370 nM, the IC50 [7] was 25000 nM and the IC50 [8] was 560 nM. For the same compound, the “fold higher cytotoxic activity than cisplatin” value [9] was 18 to 28 fold, the IC50 [10] was 150 nM and the IC50 [11] was 480 nM. For the same compound, the IC50 [12] was 1200 nM, the “toxic side-effect including death and weight loss” value ([13]; nude mice) was “no apparent 1-induced toxic side-effect including death and weight loss was observed” and the “suppression of tumor growth compared to vehicle control” value ([13]; nude mice bearing PLC tumor) was 47%. The IC50 [14] was 620 nM, the “inhibition of TopoI-mediated DNA relaxation” value ([15]; 10 μM) was “completely inhibited” and the “inhibition of TopoI-mediated DNA relaxation” value ([15]; dose response, compared with CPT) was “dose-dependently inhibits DNA relaxation at significant lower concentrations than CPT”. For the same compound, the “nicked DNA (stimulation of DNA cleavage by TopoI)” value ([15]; ethidium bromide containing gel) was “presence of nicked DNA was observed” and the “band intensity of the TopoI band” value ([2]; 10 and 100 nM) was “reduced the band intensity of the TopoI band”.
